Experimental data from patent publication US11286268B1, “EIF4E-inhibiting compounds and methods” (EFFECTOR THERAPEUTICS, INC., priority 2019, dated 2022).

What follows are molecules tested against recombinant eIF4E (Homo sapiens (Human), UniProt P06730) (assay: Fluorescence polarization competition assay for eIF4E binding potency). Settings: inhibition of eIF4E/EDA-m7GDP-ATTO-550 binding; calculated IC50 values, Table 4B; read-out: IC50.
Summary of the method: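 IC50 values reflect 50% displacement of 20 nM EDA-m7GDP-ATTO-550 from 75 nM eIF4E, measured by fluorescence polarization after 30 min at room temperature. Buffer: 20 mM Tris pH 7.5, 100 mM NaCl, 1 mM DTT, 0.02% Tween-20; 1% DMSO.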

Sequence of recombinant eIF4E (P06730 whole entry): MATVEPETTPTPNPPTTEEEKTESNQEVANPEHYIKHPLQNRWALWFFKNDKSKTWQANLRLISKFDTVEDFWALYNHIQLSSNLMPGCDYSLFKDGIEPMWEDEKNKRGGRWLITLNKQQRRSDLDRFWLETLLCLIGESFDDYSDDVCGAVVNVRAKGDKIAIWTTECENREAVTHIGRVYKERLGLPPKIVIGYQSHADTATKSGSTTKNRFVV

Structure (SMILES) | IC50 [µM]
Cc1nc2cnc(N(C)C3CCN(C4COC4)CC3)c(C#N)c2c(=O)n1CC#Cc1ccc(Cl)cc1-c1ccnc2c(C(=O)O)csc12 [compound 1523] | 0.0131
Cc1nc2cnc(N(C)C3CCN(C4(C)CC4)CC3)c(C#N)c2c(=O)n1CC#Cc1ccc(Cl)cc1-c1ccnc2c(C(=O)O)csc12 [compound 1524] | 0.0125
Cc1nc2cnc(N3CC4(CCN4C4CC4)C3)c(C#N)c2c(=O)n1CC#Cc1ccc(Cl)cc1-c1ccnc2c(C(=O)O)csc12 [compound 1525] | 0.0151
Cc1nc2cnc(N3CCC(N(C)C4CC4)CC3)c(C#N)c2c(=O)n1CC#Cc1ccc(Cl)cc1-c1ccnc2c(C(=O)O)csc12 [compound 1527] | 0.0156
Cc1nc2cnc(N(C)C3CCOCC3)c(C#N)c2c(=O)n1CC#Cc1ccc(Cl)cc1-c1ccnc2c(C(=O)O)csc12 [compound 1528] | 0.00631
Cc1nc2cnc(N(C)C3CCN(C4(CF)CC4)CC3)c(C#N)c2c(=O)n1CC#Cc1ccc(Cl)cc1-c1ccnc2c(C(=O)O)csc12 [compound 1529] | 0.0201
Cc1nc2cnc(N(C)C3CCN(C4(C(F)(F)F)CC4)CC3)c(C#N)c2c(=O)n1CC#Cc1ccc(Cl)cc1-c1ccnc2c(C(=O)O)csc12 [compound 1530] | 0.0335
Cc1nc2cnc(N(C)[C@@H]3C[C@@H]4CN(CC(F)F)C[C@@H]4C3)c(C#N)c2c(=O)n1CC#Cc1ccc(Cl)cc1-c1ccnc2c(C(=O)O)csc12 [compound 1531] | 0.0134
Cc1nc2cnc(N(C)[C@H]3C[C@H](N(C)CCF)C3)c(C#N)c2c(=O)n1CC#Cc1ccc(Cl)cc1-c1ccnc2c(C(=O)O)csc12 [compound 1532] | 0.0112
Cc1nc2cnc(N(C)[C@H]3CC[C@@H](N(C)CCF)CC3)c(C#N)c2c(=O)n1CC#Cc1ccc(Cl)cc1-c1ccnc2c(C(=O)O)csc12 [compound 1533] | 0.0217
Cc1nc2cnc(N(C)C3COC3)c(C#N)c2c(=O)n1CC#Cc1ccc(Cl)cc1-c1ccnc2c(C(=O)O)csc12 [compound 1534] | 0.0158
CCN(c1ncc2nc(C)n(CC#Cc3ccc(Cl)cc3-c3ccnc4c(C(=O)O)csc34)c(=O)c2c1C#N)C1CCN(CC(F)F)CC1 [compound 1535] | 0.0174
Cc1nc2cnc(N(C)C3CCN(CC(F)(F)c4ccn(C)n4)CC3)c(C#N)c2c(=O)n1CC#Cc1ccc(Cl)cc1-c1ccnc2c(C(=O)O)csc12 [compound 1536] | 0.0183
Cc1nc2cnc(N(C)C3CCN(C(c4ccn(C)n4)C(F)F)CC3)c(C#N)c2c(=O)n1CC#Cc1ccc(Cl)cc1-c1ccnc2c(C(=O)O)csc12 (centres unmarked) [compound 1537] | 0.0189
Cc1nc2cnc(N(C)C3CCN(CC(F)(F)F)CC3)c(C#N)c2c(=O)n1CC#Cc1ccc(Cl)cc1-c1ccnc2c(C(=O)NS(=O)(=O)C(C)C)csc12 [compound 1538] | 0.0145
Cc1nc2cnc(N(C)C3CCN(CC(F)(F)F)CC3)c(C#N)c2c(=O)n1CC#Cc1ccc(Cl)cc1-c1ccnc2c(C(=O)NS(=O)(=O)CC(F)F)csc12 [compound 1539] | 0.0125
Cc1nc2cnc(N(C)C3CCCN(CC(F)F)C3)c(C#N)c2c(=O)n1CC#Cc1ccc(Cl)cc1-c1ccnc2c(C(=O)O)csc12 (centres unmarked) [compound 1540] | 0.0195
Cc1nc2cnc(N(C)CC3CN(CC(F)F)C3)c(C#N)c2c(=O)n1CC#Cc1ccc(Cl)cc1-c1ccnc2c(C(=O)O)csc12 [compound 1542] | 0.0186

Structure (SMILES) | IC50 [µM]
Cc1nc2cnc(OC3CCN(C4CC(F)(F)C4)CC3)c(C#N)c2c(=O)n1CCOc1ccc(Cl)cc1-c1ccnc2c(C(=O)O)csc12 [compound 1543] | 0.0205
Cc1nc2cnc(N3CCC[C@@H]4CN(CC(F)F)CC[C@@H]43)c(C#N)c2c(=O)n1CC#Cc1ccc(Cl)cc1-c1ccnc2c(C(=O)O)csc12 [compound 1544] | 0.0131
Cc1nc2cnc(N(C)C3C[C@@H]4C[C@H]3CN4CC(C)(F)F)c(C#N)c2c(=O)n1CC#Cc1ccc(Cl)cc1-c1ccnc2c(C(=O)O)csc12 (some centres unmarked) [compound 1545] | 0.0275
Cc1nc2cnc(N(C)C3CCN(CC(F)(F)F)CC3)c(C#N)c2c(=O)n1CC#Cc1ccc(Cl)cc1-c1ccnc2c(C(=O)NS(=O)(=O)C3CC3)csc12 [compound 1547] | 0.0152
Cc1nc2cnc(N(C)C3CCN(CC(F)(F)F)CC3)c(C#N)c2c(=O)n1CC#Cc1ccc(Cl)cc1-c1ccnc2c(C(=O)NS(=O)(=O)c3ccccc3)csc12 [compound 1548] | 0.0362
Cc1ccccc1S(=O)(=O)NC(=O)c1csc2c(-c3cc(Cl)ccc3C#CCn3c(C)nc4cnc(N(C)C5CCN(CC(F)(F)F)CC5)c(C#N)c4c3=O)ccnc12 [compound 1549] | 0.0262
Cc1nc2cnc(N(C)C3CCN(CC(F)(F)F)CC3)c(C#N)c2c(=O)n1CC#Cc1ccc(Cl)cc1-c1ccnc2c(C(=O)NS(=O)(=O)c3ccc(F)cc3F)csc12 [compound 1550] | 0.0229
Cc1nc2cnc(N3CCC(N(CC(F)F)C4COC4)CC3)c(C#N)c2c(=O)n1CC#Cc1ccc(Cl)cc1-c1ccnc2c(C(=O)O)csc12 [compound 1553] | 0.0129
Cc1nc2cnc(N(C)C3CCN(CC(F)(F)c4ccccc4)CC3)c(C#N)c2c(=O)n1CC#Cc1ccc(Cl)cc1-c1ccnc2c(C(=O)O)csc12 [compound 1555] | 0.0239
Cc1nc2cnc(N3CC[C@H]4CN(CC(F)F)CC[C@H]43)c(C#N)c2c(=O)n1CC#Cc1ccc(Cl)cc1-c1ccnc2c(C(=O)O)csc12 [compound 1556] | 0.0499
Cc1nc2cnc(N(C)C3CCN(CC(F)F)CC3)c(C#N)c2c(=O)n1C(C)C#Cc1ccc(Cl)cc1-c1ccnc2c(C(=O)O)csc12 (centres unmarked) [compound 1557] | 0.00677
Cc1nc2cnc(-c3cccc4c3CCN(CC(F)F)C4)c(C#N)c2c(=O)n1CC#Cc1ccc(Cl)cc1-c1ccnc2c(C(=O)O)csc12 [compound 1558] | 0.069
Cc1nc2cnc(-c3cccc(CN(C)CC(F)F)c3)c(C#N)c2c(=O)n1CC#Cc1ccc(Cl)cc1-c1ccnc2c(C(=O)O)csc12 [compound 1559] | 0.0134
Cc1nc2cnc(N(C)C3CCN(CC(F)F)CC3)c(C#N)c2c(=O)n1CC#Cc1ccc(Cl)cc1-c1ccnc2c(C(=O)NO)csc12 [compound 1560] | 0.00631
Cc1nc2cnc(N(C)C3CCN(C4COC4)CC3)c(C#N)c2c(=O)n1CC#Cc1ccc(Cl)cc1-c1ccnc2c(C(=O)NS(C)(=O)=O)csc12 [compound 1561] | 0.013
Cc1nc(N(C)C2CCN(CC(C)(F)F)CC2)c(C#N)c2c(=O)n(CCOc3ccc(Cl)cc3-c3ccnc4c(C(=O)O)csc34)c(C)nc12 [compound 1562] | 0.0168
Cc1cc(-c2cc(Cl)ccc2OCCn2c(C)nc3cnc(N(C)C4CCN(CC(C)(F)F)CC4)c(C#N)c3c2=O)c2scc(C(=O)O)c2n1 [compound 1563] | 0.013

Continued, values first:

IC50 [µM] | Structure (SMILES)
0.0106 | Cc1nc2cnc(N3CCC(N4CC(F)C4)CC3)c(C#N)c2c(=O)n1CC#Cc1ccc(Cl)cc1-c1ccnc2c(C(=O)O)csc12 [compound 1564]
0.00439 | Cc1nc2cnc(N(C)C3CCN(CC(F)F)CC3)c(C#N)c2c(=O)n1CC#Cc1ccc(Cl)cc1-c1ccnc2c(C(=O)NS(=O)(=O)c3ccccn3)csc12 [compound 1566]
0.0195 | Cc1nc2cnc(N(C)c3ccncc3)c(C#N)c2c(=O)n1CC#Cc1ccc(Cl)cc1-c1ccnc2c(C(=O)O)csc12 [compound 1569]
0.0229 | Cc1nc2cc(C(F)(F)F)c(N3CC4(C3)CN(C3CC3)C4)c(C#N)c2c(=O)n1CC#Cc1ccc(Cl)cc1-c1ccnc2c(C(=O)O)csc12 [compound 1570]
0.0205 | Cc1nc2cnc(C3CCCN(CC(F)F)C3)c(C#N)c2c(=O)n1CCCc1ccc(Cl)cc1-c1ccnc2c(C(=O)O)csc12 (centres unmarked) [compound 1571]
0.02 | Cc1nc2cnc(C(F)(F)C3CCN(CC(F)F)CC3)c(C#N)c2c(=O)n1CC#Cc1ccc(Cl)cc1-c1ccnc2c(C(=O)O)csc12 [compound 1572]
0.0222 | Cc1nc2cnc(C3=CCC(N(C)CC(F)F)CC3)c(C#N)c2c(=O)n1CC#Cc1ccc(Cl)cc1-c1ccnc2c(C(=O)O)csc12 (centres unmarked) [compound 1573]
0.0134 | Cc1nc2cnc(C3CCCN(CC(F)F)C3)c(C#N)c2c(=O)n1CC#Cc1ccc(Cl)cc1-c1ccnc2c(C(=O)O)csc12 (centres unmarked) [compound 1574]
0.0147 | Cc1nc2cnc(N(C)C3[C@@H]4CC[C@H]3CN(CC(C)(F)F)C4)c(C#N)c2c(=O)n1CC#Cc1ccc(Cl)cc1-c1ccnc2c(C(=O)O)csc12 (some centres unmarked) [compound 1575]
0.0179 | Cc1nc2cnc(N(C)[C@@H]3[C@@H]4C[C@H]3CN(CC(C)(F)F)C4)c(C#N)c2c(=O)n1CC#Cc1ccc(Cl)cc1-c1ccnc2c(C(=O)O)csc12 [compound 1576]
0.0133 | Cc1nc2cnc(N(C)[C@H]3[C@@H]4C[C@H]3CN(CC(C)(F)F)C4)c(C#N)c2c(=O)n1CC#Cc1ccc(Cl)cc1-c1ccnc2c(C(=O)O)csc12 [compound 1577]
0.0203 | CCN(c1ncc2nc(C)n(CC#Cc3ccc(Cl)cc3-c3ccnc4c(C(=O)NS(C)(=O)=O)csc34)c(=O)c2c1C#N)C1CCN(C2COC2)CC1 [compound 1578]
0.0303 | Cc1nc2cnc(N(C)[C@H]3CC[C@H](N(CC(F)F)C(C)CO)CC3)c(C#N)c2c(=O)n1CC#Cc1ccc(Cl)cc1-c1ccnc2c(C(=O)O)csc12 (some centres unmarked) [compound 1579]
0.0143 | Cc1nc2cnc(N(C)[C@@H]3CC[C@@H](N(C)CC(F)F)C3)c(C#N)c2c(=O)n1CC#Cc1ccc(Cl)cc1-c1ccnc2c(C(=O)O)csc12 [compound 1581]
0.0192 | Cc1nc2cnc(N(C)C3CCN(CC(F)(F)C4CC(F)(F)C4)CC3)c(C#N)c2c(=O)n1CC#Cc1ccc(Cl)cc1-c1ccnc2c(C(=O)O)csc12 [compound 1582]
0.0582 | Cc1nc2cnc(N(C)[C@H]3CC[C@H](CN(C)CC(C)(F)F)CC3)c(C#N)c2c(=O)n1CC#Cc1ccc(Cl)cc1-c1ccnc2c(C(=O)O)csc12 [compound 1583]
0.0369 | Cc1nc2cnc(N(C)C3CCN(CC4(CF)CCC4)CC3)c(C#N)c2c(=O)n1CC#Cc1ccc(Cl)cc1-c1ccnc2c(C(=O)O)csc12 [compound 1584]
0.0152 | Cc1nc2cnc(N(C)C3CCN(CC(F)(F)Cl)CC3)c(C#N)c2c(=O)n1CC#Cc1ccc(Cl)cc1-c1ccnc2c(C(=O)O)csc12 [compound 1585]
